# Results published in patent publication US7723070B2, “Overexpression of aminoacyl-tRNA synthetases for efficient production of engineered proteins containing amino acid analogues” (California Institute of Technology, priority 2000, dated 2010).
# Read-outs that look alike come from different tables or passages of the source.
# What was measured:
# CAG18491/pQE15-MRS/pREP4 = format: cell-based, E. coli; details: for level of protein synthesis in modified host over conventional host (Western blot, laser densitometry): 5-ml cultures, versus CAG18491/pQE15/pREP4; for yield of mDHFR from large-scale cultures: preliminary results
# Experimental: Similarly, a bacterial host capable of overexpressing MetRS was produced by transforming E. coli strains CAG18491 (Novagen, Inc., Madison, Wis., USA), a methionine auxotroph, with repressor plasmid pREP4 and expression plasmid pQE15-MRS, as described for the B834(DE3) strain. A control bacterial host, which produces only mDHFR and normal cellular levels of MetRS, was prepared by transforming CAG18491 with pREP4 and pQE15.
# (§1) Methionine analogues were synthesized via alkylation of diethylacetamidomalonate, as previously described (As described in Example I, infra; J. C. M. van Hest, D. A. Tirrell, FEBS Lett. 1998, 428, 68-70). Cultures of B834(DE3)/pQE15-MRS/pREP4 or B834(DE3)/pQE15/pREP4 or CAG18491/pQE15-MRS/pREP4 or CAG18491/pQE15/pREP4 in M9AA media were grown to an optical density of 0.90, and the cells were sedimented by centrifugation. The M9AA medium was prepared by supplementing sterile M9 medium with […] of each of the amino acids, 1 mM MgSO4, 0.2 wt % glucose, 1 mg/ml thiamine chloride, and […] calcium chloride. The antibiotics ampicillin and kanamycin were added at concentrations of 200 mg/l and 35 mg/l, respectively.
# (§2) Cells were washed three times with M9 salts and resuspended to an optical density of 0.90 in M9 test media containing 19 amino acids plus 1) neither methionine nor analogue (negative control); 2) methionine (60 mg/liter, positive control); or 3) an analogue of interest (60 mg/liter). To test the effect of increasing the level of supplementation of the analogues, a set of experiments was also conducted in which the medium was supplemented with 500 mg/liter of methionine or the amino acid analogue. Expression of mDHFR was induced by addition of 0.4 mM isopropyl β-D-thiogalactopyranoside (IPTG), and protein synthesis was monitored after 4.5 hours.
# Buffers and media were prepared according to standard protocols (Ausubel, F. M.; Brent, R.; Kingston, R. E.; Moore, D. D.; Seidman, J. G.; Smith, J. A.; Struhl, K., Eds. Current Protocols in Molecular Biology; John Wiley and Sons: New York, 1998). The E. coli methionine auxotroph CAG18491 (λ^−, rph-1, metE3079.:Tn10) was transformed with plasmids pQE15 and pREP4 (Qiagen), to obtain the expression host CAG18491/pQE15/pREP4. […] Both bacterial expression hosts produce the target protein mDHFR under control of a bacteriophage T5 promoter; the modified host also expresses extra copies of the MetRS gene under control of the constitutive metG p1 promoter (Dardel, F.; Panvert, M.; Fayat, G. Mol. Gen. Genet. 1990, 223, 121.133).
# M9AA medium (100 mL) supplemented with 1 mM MgSO4 0.2 wt % glucose, 1 mg/L thiamine chloride and the antibiotics ampicillin (200 mg/L) and kanamycin (35 mg/L) was inoculated with the appropriate E. coli strain (CAG18491/pQE15/pREP4 or CAG18491/pQE15-MRS/pREP4) and grown overnight at 37° C. This culture was used to inoculate 900 mL M9AA medium supplemented as described. The cells were grown to an optical density at 600 nm (OD600) of approximately 0.9 and a medium shift was performed. The cells were sedimented for 10 min at 3030 g at 4° C., the supernatant was removed, and the cell pellet was washed twice with 600 mL of M9 medium. Cells were resuspended in 1000 mL of the M9AA medium described above, without methionine, and supplemented with 20 mg/L of the L-isomer of either 1, 2, 3, or 9. Protein synthesis was induced by addition of isopropyl-β-D-thiogalactopyranoside (IPTG) to a final concentration of 0.4 mM. Samples (1 mL) were collected after 4.5 hours, the OD600 measured, and cells resuspended with distilled water to yield a normalized OD600 of 20.
# E. coli cells = details: antagonist for methionine; cited from earlier work
# [1] = test system: B834(DE3)/pQE15-MRS/pREP4; format: cell-based, E. coli
# Excerpt: A gene encoding a mutant MetRS was removed from plasmid pBSM547W305F (D. Fourmy, Y. Mechulam, S. Brunie, S. Blanquet, G. Fayat, FEBS Lett. 1991, 292, 259-263) by treatment with restriction enzymes Sac I and Kpn I. The Sac I/Kpn I fragment (2450 bp) was ligated into the cloning vector pUC19-Nhelink, which was constructed to permit the cohesive ends of the mutant MetRS gene to be changed to Nhe I. The MetRS gene with Nhe I cohesive ends was then ligated into the unique Nhe I site of the plasmid pQE15 (Qiagen, Inc., Santa Clarita, Calif., USA) to yield plasmid pQE15-W305F (FIG. 20) (SEQ ID NO.: 2).
# (§3) Plasmid DNA from all B834(DE3)/pQE15-MRS/pREP4 cultures used for protein expression experiments was sequenced to confirm that it encoded wild-type MetRS. […] The expression plasmid also encodes an N-terminal hexahistidine sequence for mDHFR which permits purification of the target protein by immobilized metal chelate affinity chromatography (The Qiagen Expressionist, 1992, p. 45). Furthermore, mDHFR contains 8 methionine residues which can be replaced by methionine analogues. A control bacterial host, which produces only mDHFR and normal cellular levels of MetRS, was prepared by transforming B834(DE3) with pREP4 and pQE15.
# as §1, §2
# B834(DE3)/pQE15/pREP4 = assay: Translational activity: mDHFR synthesis in control host; format: cell-based, E. coli
# Excerpt: as §3
# Methionine analogues were synthesized via alkylation of diethylacetamidomalonate, as previously described (As described in Example I, infra; J. C. M. van Hest, D. A. Tirrell, FEBS Lett. 1998, 428, 68-70). […]
# as §2, with “To test the effect of increasing the level of supplementation of the analogues, a set of experiments was also conducted in which the medium was supplemented with 500 mg/liter of methionine or the amino acid analogue.” left out
# [2] = test system: E. coli strain CAG18491/pQE15/pREP4; assay: Translational activity: mDHFR synthesis in methionine-depleted cultures of conventional host; format: cell-based; details: analogue in place of methionine at the time of inoculation
compound,measurement,setting,value
"C/C=C\CC(N)C(=O)O (racemic) [Analogue 4, cis-2-amino-4-hexenoic acid]",mDHFR expression (SDS-PAGE),CAG18491/pQE15-MRS/pREP4; 500 mg/liter,able to produce the target protein
same,effect on growth of E. coli cells,E. coli cells,inhibiting the growth
"C/C=C/CC(N)C(=O)O (racemic) [Analogue 5, trans-2-amino-4-hexenoic acid]",incorporation of the analogue at the initiator position (N-terminal sequencing),[1],96±2%
same,mDHFR produced relative to cultures supplemented with methionine,[1],23%
same,overall extent of incorporation of the analogue (amino acid analysis),[1],91±2%
same,replacement of methionine (integration of NMR spectrum),[1],90±6%
same,mDHFR expression (SDS-PAGE),[1]; 60 mg/L,strong induction of mDHFR
same,methionine content by amino acid analysis,[1]; expected value 3.8 mol %,0.3 mol %
same,mDHFR expression (SDS-PAGE),B834(DE3)/pQE15/pREP4; 60 mg/L,not detected
"CCCCCC(N)C(=O)O (racemic) [Analogue 7, DL-2-aminoheptanoic acid]",mDHFR expression (SDS-PAGE),CAG18491/pQE15-MRS/pREP4; 500 mg/liter,able to produce the target protein
2-butynylglycine [Analogue 11],mDHFR expression (SDS-PAGE),CAG18491/pQE15-MRS/pREP4; 60 mg/L,strong induction of mDHFR
"CCC[C@H](N)C(=O)O [Analogue 8, L-norvaline]",mDHFR expression (SDS-PAGE),CAG18491/pQE15-MRS/pREP4; 500 mg/liter,able to produce the target protein
"C#CCCC(N)C(=O)O (racemic) [Analogue 3, DL-homopropargylglycine]","level of protein synthesis in modified host over conventional host (Western blot, laser densitometry)",CAG18491/pQE15-MRS/pREP4,does not exhibit higher levels of protein synthesis
same,growth of cultures in minimal media with methionine replaced by analogue at inoculation,[2],did not grow
"C=CCC(N)C(=O)O (centres unmarked) [Analogue 12, allylglycine]",mDHFR expression (SDS-PAGE),CAG18491/pQE15-MRS/pREP4; 500 mg/liter,able to produce the target protein
"C=CCCC(N)C(=O)O (racemic) [Analogue 2, DL-2-amino-5-hexenoic acid]","level of protein synthesis in modified host over conventional host (Western blot, laser densitometry)",CAG18491/pQE15-MRS/pREP4,approximately 1.5 fold
same,yield of mDHFR from large-scale cultures,CAG18491/pQE15-MRS/pREP4,approximately 35 mg/L
same,growth of cultures in minimal media with methionine replaced by analogue at inoculation,[2],did not grow
"CSCC[C@H](N)C(=O)O [Analogue 1, L-methionine, reference compound]","level of protein synthesis in modified host over conventional host (Western blot, laser densitometry)",CAG18491/pQE15-MRS/pREP4,does not exhibit higher levels of protein synthesis
same,Protein yields,[1]; supplemented cultures,approximately 35 mg/liter
same,Protein yields,B834(DE3)/pQE15/pREP4; supplemented cultures,approximately 35 mg/liter
"CCCC[C@H](N)C(=O)O [Analogue 9, L-norleucine]","level of protein synthesis in modified host over conventional host (Western blot, laser densitometry)",CAG18491/pQE15-MRS/pREP4,approximately 1.4 fold
same,yield of mDHFR from large-scale cultures,CAG18491/pQE15-MRS/pREP4,approximately 35 mg/L
